Results as given in ChEMBL document CHEMBL2331254, “Pyrrolopyrimidine inhibitors of DNA gyrase B (GyrB) and topoisomerase IV (ParE), Part II: development of inhibitors with broad spectrum, Gram-negative antibacterial activity” (Bioorg Med Chem Lett, 2013).
Values after ≈ are worked out from the molar mass of the structure shown.

Key:
Staphylococcus aureus = test: Antibacterial activity against Staphylococcus aureus ATCC 13709 by broth microdilution method; type: functional
[1] = Inhibition of Escherichia coli parE assessed as release of inorganic phosphate from ATP hydrolysis after 30 mins by coupled spectrophotometric assay
Escherichia coli [2] = test: Antibacterial activity against permeabilized Escherichia coli IBAS849 by broth microdilution method; type: functional
Escherichia coli [3] = test: Antibacterial activity against wild type Escherichia coli ATCC 25922 by broth microdilution method; type: functional
[4] = Inhibition of Escherichia coli GyrB assessed as release of inorganic phosphate from ATP hydrolysis after 30 mins by coupled spectrophotometric assay
Escherichia coli [5] = test: Antibacterial activity against Escherichia coli BW25113 harboring deltatolC by broth microdilution method; type: functional
[6] = Inhibition of Francisella tularensis GyrB assessed as release of inorganic phosphate from ATP hydrolysis after 30 mins by coupled spectrophotometric assay
[7] = Inhibition of Francisella tularensis parE assessed as release of inorganic phosphate from ATP hydrolysis after 30 mins by coupled spectrophotometric assay

Row | SMILES | MIC (Staphylococcus aureus) [µg/mL] | Ki [1] [nM] | MIC (Escherichia coli [2]) [µg/mL] | MIC (Escherichia coli [3]) [µg/mL] | Ki [4] [nM] | MIC (Escherichia coli [5]) [µg/mL] | Ki [6] [nM] | Ki [7] [nM]
1 | CCc1[nH]c2nc(Sc3ccc4c(N5CCC(N)C5)nc(C(=O)O)nc4c3)nc(N3CCC(N)C3)c2c1Cl (stereo unspecified) | 8 (≈ 14.4 µM) | 1 | 4 (≈ 7.22 µM) | 8 (≈ 14.4 µM) | < 0.5 | 8 (≈ 14.4 µM) |  | 
2 | CCc1[nH]c2nc(Sc3cnc4nccnc4c3)nc(N3CC4CCNC4C3)c2c1Cl (stereo unspecified) | 1 (≈ 2.21 µM) | 6 | 4 (≈ 8.83 µM) | 32 (≈ 70.6 µM) |  | 2 (≈ 4.42 µM) | < 1 | 
3 | CCc1[nH]c2nc(Sc3cnc4nccnc4c3)nc(N3CCCC(N)C3)c2c1Cl (stereo unspecified) | 8 (≈ 18.1 µM) | 131 | 32 (≈ 72.6 µM) | > 64 |  | 16 (≈ 36.3 µM) | 7 | 
4 | CCc1[nH]c2nc(Sc3cccnc3)nc(NC[C@H](C)O)c2c1Cl | 4 (≈ 11 µM) |  | 32 (≈ 87.9 µM) | > 64 |  |  | 171 | 173
5 | CCc1[nH]c2nc(Sc3cnc4nccnc4c3)nc(N3C[C@@H]4[C@H](C3)[C@@]4(N)C(N)=O)c2c1Cl | 0.25 (≈ 0.519 µM) | < 1 | 2 (≈ 4.15 µM) | > 64 |  | 0.25 (≈ 0.519 µM) |  | 
6 | CCc1[nH]c2nc(Sc3cnc4nccnc4c3)nc(N3CC(NC(=O)COC)C3)c2c1Cl | 0.25 (≈ 0.515 µM) | 10 | 4 (≈ 8.25 µM) | > 64 |  | 2 (≈ 4.12 µM) | < 1 | 
7 | CCc1[nH]c2nc(Sc3cnc4nccnc4c3)nc(N3C[C@@H]4[C@H](C3)[C@@]4(N)CO)c2c1Cl | 0.25 (≈ 0.533 µM) | 2 | 4 (≈ 8.53 µM) | 64 (≈ 136 µM) |  | 0.5 (≈ 1.07 µM) | < 1 | 
8 | CCc1[nH]c2nc(Sc3ccc4cc5c([n+]([O-])c4c3)CCNC5)nc(N3CCC(N)C3)c2c1Cl (stereo unspecified) | 2 (≈ 4.03 µM) | 6 | 16 (≈ 32.3 µM) | 16 (≈ 32.3 µM) | < 0.5 | 4 (≈ 8.06 µM) |  | 
9 | CCc1[nH]c2nc(Sc3ccc4ccc[n+]([O-])c4c3)nc(N3C[C@@H]4[C@@H](N)[C@@H]4C3)c2c1Cl | ≤ 0.13 | < 1 | 1 (≈ 2.21 µM) | 8 (≈ 17.7 µM) | < 0.5 | 0.25 (≈ 0.552 µM) |  | 
10 | CCc1[nH]c2nc(Sc3ccc4c(N)nc(C)nc4c3)nc(N3CCC(N)C3)c2c1Cl (stereo unspecified) | 2 (≈ 4.4 µM) | 2 | 8 (≈ 17.6 µM) | 16 (≈ 35.2 µM) | < 0.5 | 2 (≈ 4.4 µM) |  | 
11 | CCc1[nH]c2nc(Sc3ccc4[nH]cc(C(=O)O)c(=O)c4c3)nc(N3CCC(N)C3)c2c1Cl (stereo unspecified) | > 64 | 1 | > 64 | > 64 | < 0.5 | > 64 |  | 
12 | CCc1[nH]c2nc(Sc3cnc4nccnc4c3)nc(N3C[C@@H]4[C@H](C3)[C@H]4NC(=N)N)c2c1Cl | 0.25 (≈ 0.52 µM) | < 1 | 2 (≈ 4.16 µM) | 64 (≈ 133 µM) |  | 2 (≈ 4.16 µM) |  | 
13 | CCc1[nH]c2nc(Sc3cnc4nccnc4c3)nc(N3C[C@@H]4[C@@H](N)[C@@H]4C3)c2c1Cl | 0.13 (≈ 0.296 µM) | 1 | 0.5 (≈ 1.14 µM) | 8 (≈ 18.2 µM) | < 0.5 | 0.5 (≈ 1.14 µM) | < 1 | 
14 | CCc1[nH]c2nc(Sc3cnc4nccnc4c3)nc(N3CC4CNCC4C3)c2c1Cl (stereo unspecified) | 2 (≈ 4.42 µM) | 17 | 8 (≈ 17.7 µM) | > 64 |  | 8 (≈ 17.7 µM) | < 1 | 
15 | CCc1[nH]c2nc(Sc3cnc4nccnc4c3)nc(N3CCC4(CCCN4)C3)c2c1Cl (stereo unspecified) | 4 (≈ 8.57 µM) | 35 | 16 (≈ 34.3 µM) | > 64 |  | 8 (≈ 17.1 µM) | 6 | 
16 | CCc1[nH]c2nc(Sc3cnc4nccnc4c3)nc(N3CC(NC(=O)C4CC4)C3)c2c1Cl | 1 (≈ 2.08 µM) | 3 | 8 (≈ 16.6 µM) | > 64 |  | 4 (≈ 8.32 µM) | < 1 | 

Row | SMILES | MIC (Staphylococcus aureus) [µg/mL] | Ki [1] [nM] | MIC (Escherichia coli [2]) [µg/mL] | MIC (Escherichia coli [3]) [µg/mL] | Ki [4] [nM] | MIC (Escherichia coli [5]) [µg/mL] | Ki [6] [nM] | Ki [7] [nM]
17 | CCc1[nH]c2nc(Sc3cnc4nccnc4c3)nc(N3CCC(NC)C3)c2c1Cl (stereo unspecified) | 2 (≈ 4.54 µM) | 40 | 16 (≈ 36.3 µM) | > 64 |  | 8 (≈ 18.1 µM) | 2 | 
18 | CCc1[nH]c2nc(Sc3ccc4ccc(C(=O)O)nc4c3)nc(N3CCC(N)C3)c2c1Cl (stereo unspecified) | 2 (≈ 4.26 µM) | 2 | > 64 | > 64 | < 0.5 | 8 (≈ 17.1 µM) |  | 
19 | CCc1[nH]c2nc(Sc3cnc4nccnc4c3)nc(N3CC(NS(C)(=O)=O)C3)c2c1Cl | 4 (≈ 8.15 µM) | 9 | 32 (≈ 65.2 µM) | > 64 |  |  | < 1 | 
20 | CCc1[nH]c2nc(Sc3cnc4nccnc4c3)nc(N3CC4CNC4C3)c2c1Cl (stereo unspecified) | 0.5 (≈ 1.14 µM) | 2 | 2 (≈ 4.56 µM) | 16 (≈ 36.5 µM) |  | 1 (≈ 2.28 µM) | < 1 | 
21 | CCc1[nH]c2nc(Sc3ccc4cccnc4c3)nc(N3C[C@@H]4[C@@H](N)[C@@H]4C3)c2c1Cl | 0.25 (≈ 0.572 µM) | 6 | 4 (≈ 9.15 µM) | > 64 | 1 | 1 (≈ 2.29 µM) |  | 
22 | CCc1[nH]c2nc(Sc3cccnc3)nc(Cl)c2c1Cl | 4 (≈ 12.3 µM) |  | > 64 | > 64 |  |  | 488 | 
23 | CCc1[nH]c2nc(Sc3ccc4c(N5CC(N)C5)ncnc4c3)nc(N3CCC(N)C3)c2c1Cl (stereo unspecified) | 16 (≈ 32.3 µM) | 7 | 8 (≈ 16.1 µM) | 8 (≈ 16.1 µM) | < 0.5 | 4 (≈ 8.06 µM) |  | 
24 | CCc1[nH]c2nc(Sc3cnc4nccnc4c3)nc(N3CCC(N)C3)c2c1Cl (stereo unspecified) | 1 (≈ 2.34 µM) | 11 | 4 (≈ 9.37 µM) | 32 (≈ 75 µM) |  | 2 (≈ 4.68 µM) | < 1 | 
25 | CCc1[nH]c2nc(Sc3ccc4c(c3)C(=O)NC4)nc(N3C[C@@H]4[C@@H](N)[C@@H]4C3)c2c1Cl | 0.5 (≈ 1.13 µM) | 8 | 4 (≈ 9.07 µM) | 32 (≈ 72.6 µM) | 4 | 1 (≈ 2.27 µM) |  | 
26 | CCc1[nH]c2nc(Sc3cnc4nccnc4c3)nc(N3CC(NC(=O)c4cnccn4)C3)c2c1Cl | 1 (≈ 1.93 µM) | 9 | 8 (≈ 15.4 µM) | 64 (≈ 123 µM) |  | 4 (≈ 7.71 µM) | < 1 | 
27 | CCc1[nH]c2nc(Sc3ccc4nccnc4c3)nc(N3C[C@@H]4[C@@H](N)[C@@H]4C3)c2c1Cl | ≤ 0.13 | 1 | 0.25 (≈ 0.571 µM) | > 64 | < 0.5 | 0.25 (≈ 0.571 µM) |  | 
28 | CCc1[nH]c2nc(Sc3cnc4c(c3)c(=O)ncn4C)nc(N3C[C@@H]4[C@@H](N)[C@@H]4C3)c2c1Cl | 0.5 (≈ 1.07 µM) | 3 | 2 (≈ 4.26 µM) | 32 (≈ 68.2 µM) | 5 | 2 (≈ 4.26 µM) |  | 
29 | CCc1[nH]c2nc(Sc3cnc4nccnc4c3)nc(N3CC(C)(N)C3)c2c1Cl | 4 (≈ 9.37 µM) | 69 | 16 (≈ 37.5 µM) | > 64 |  | 16 (≈ 37.5 µM) | 16 | 
30 | CCNC(=O)NC1CN(c2nc(Sc3cnc4nccnc4c3)nc3[nH]c(CC)c(Cl)c23)C1 | > 64 | 2 | > 64 | > 64 |  | > 64 | < 1 | 
31 | CCc1[nH]c2nc(Sc3cncc(S(=O)(=O)N(C)C)c3)nc(N3C[C@@H]4[C@@H](N)[C@@H]4C3)c2c1Cl | 2 (≈ 4.05 µM) | 19 | 32 (≈ 64.8 µM) | > 64 | 2 | 4 (≈ 8.1 µM) |  | 
